Measured values reported in patent US12415799B2, “Indazole-fused cyclic compound” (Zhejiang Yangli Pharmaceutical Technology Co., Ltd., priority 2020, dated 2025).
Like-named read-outs stand apart in the source and are kept apart here.

Tests used:
[1] = molecular target: CYP1A2 (Homo sapiens (Human), UniProt P05177); format: in vitro ADME; conditions: microsomes
Experimental: Experimental purposes: To test the inhibitory effect of test compound on the activity of human liver microsomal cytochrome P450 isoenzymes (CYP1A2 and CYP3A4) (Corning, Co., Ltd.).
Experimental operation: Firstly, the test compound (10 mM) was subjected to gradient dilution to prepare a working solution (100×final concentration), and the concentration of the working solution was: 5, 1.5, 0.5, 0.15, 0.05, 0.015 and 0.005 mM, respectively, and the working solution of each positive inhibitor of P450 isoenzyme (CYP1A2 and CYP3A4) and its specific substrate mixture (5 in 1) were prepared; and then the human liver microsomes frozen in the −80° C. refrigerator were thawed on ice, and all the human liver microsomes were dissolved, diluted with PB, and a certain concentration of working solution (0.253 mg/mL) was prepared; 20 μL of substrate mixture was added to the reaction plate (20 μL of PB was added to the blank well), while 158 μL of human liver microsomal working solution was added to the reaction plate, and the reaction plate was placed on ice for later use; at this time, 2 μL of various concentrations of the test compound (N=1) and specific inhibitor (N=2) were added to the corresponding well, and the corresponding organic solvent was added to the non-inhibitor (test compound or positive inhibitor) group as a control group sample (a ratio of DMSO:MeOH in the test compound control sample was 1:1, a ratio of DMSO:MeOH in the positive control sample was 1:9); after pre-incubation in a water bath at 37° C. for 10 min, 20 μL of coenzyme factor (NADPH) solution was added to the reaction plate, and incubated in a water bath at 37° C. for 10 min; and 400 μL of cold acetonitrile solution (internal standard was 200 ng/mL tolbutamide and labetalol) was added to terminate the reaction; the reaction plate was placed on a shaker and shaked for 10 minutes; and then centrifuged at 4,000 rpm for 20 minutes; 200 μL of the supernatant was taken and added to 100 μL of water for sample dilution; finally the plate was sealed, shaked and shaked well, for LC/MS/MS detection.

[2] = tested on: MCF-7 breast cancer cell xenograft; experiment: In vivo efficacy, MCF-7 breast cancer cell xenograft model; parameters: species or system BALB/c nude mice
Experimental: The purpose of this experiment was to evaluate the antitumor effect of the compound of the present disclosure on MCF-7 breast cancer cell xenograft BALB/c nude mice (provided by the Experimental Animal Management Department of the Shanghai Institute of Family Planning Sciences, and the number of test animals in each experimental group was 5) model.
Mice were subcutaneously inoculated with 0.36 mg, 60-day slow-release estrogen tablets in the left shoulder three days before inoculation. When the cells were in the logarithmic growth phase, the cells were collected and counted, and the cell concentration was adjusted to 10×10^7 cells/mL, and an equal volume of Matrigel was added to mix evenly and then used for inoculation. Each mouse was subcutaneously inoculated with 0.2 mL of MCF-7 tumor cell suspension (10×10^6) on the right shoulder. On day 9 after tumor cell inoculation, the average tumor volume was 160 mm^3 and the body weight was 22.0 to 23.0 g, which was administered in groups and administered once a day. Tumor volume and weight measurements were performed twice a week after grouping, and tumor proliferation rate (T/C) and tumor growth inhibition rate (TGI) were calculated for the last tumor volume data on the day 21 after grouping, and the antitumor effect of compounds was evaluated by TGI (%) or relative tumor proliferation rate T/C (%). TGI (%), reflecting the tumor growth inhibition rate. TGI (%)=[(1-(average tumor volume at the end of administration of a certain treatment group-average tumor volume at the beginning of administration of this treatment group)/(average tumor volume at the end of treatment in the solvent control group-average tumor volume at the beginning of treatment in this solvent control group)]×100%, relative tumor proliferation rate T/C (%)=TRTV/CRTV×100% (TRTV: average RTV of the treatment group; CRTV: average RTV of the negative control group). The relative tumor volume (RTV) was calculated according to the results of tumor measurement, and the formula was RTV=Vt/V0, wherein V0 was the average tumor volume measured at the time of group administration (i.e., D0), and Vt was the tumor volume at a certain measurement, TRTV and CRTV were taken on the same day.

[3] = tested on: MCF-7 cells; experiment: MCF-7 cell proliferation inhibition experiment; format: cell-based; conditions: 6 days incubation, CellTiter-Glo, read-out: Anti-cell proliferation activity of MCF-7
Experimental: (1) MCF-7 Cell Proliferation Inhibition Experiment:
EMEM culture medium was purchased from Wisent, and fetal bovine serum was purchased from Biosera, Promega CellTiter-Glo reagent. MCF-7 cell line was purchased from Cell Bank of Type Culture Collection of Chinese Academy of Sciences. Nivo5 multi-label analyzer (PerkinElmer).
MCF-7 cells were seeded in a white 384-well plate with 600 cells per well in every […] of the cell suspension. The cell plate was placed in a carbon dioxide incubator and cultured overnight.
The test compound was diluted to the 10th concentration with a multi-channel pipette, and the compound concentration was 1 mM, 400 μM, and 80 μM, and then diluted to the 10th concentration of 1 nM in turn, and a double-duplicate experiment was set-up. 47.5 μL of culture medium was added to the middle plate, then 2.5 μL of gradient dilution compound per well was transferred to the middle plate according to the corresponding position, and 5 μL of the mixture per well was mixed evenly and transferred to the cell plate. The cell plate was placed in a carbon dioxide incubator and cultured for 6 days.
After 6 days of co-incubation of the compound, the culture medium was removed by centrifugation, and 25 μL of Promega CellTiter-Glo reagent was added to each well of the cell plate, and incubated at room temperature for 10 minutes to stabilize the luminescence signal. PerkinElmer Nivo multi-marker analyzer reading was used. In the experiment, the reading of 2 μM positive reference compound H3B-6545(US20160347717A1) was used as a positive control to participate in data calculation.
The equation % Inhibition=((RFUCmpd−AVER(RFUNeg.ctrl))/((AVER(RFUPos.Ctrl)−AVER(RFUNeg.ctrl))×100% was used to convert the original data into inhibition rate, and the compound curve was fitted by log(inhibitor)vs. response-Variable slope of Graphpad Prism 5. The IC50 value was calculated by the software through the formula Y=Bottom+(Top−Bottom)/(1+10^((Log IC50−X)*HillSlope)).

Chain of CYP1A2 (P05177 whole entry): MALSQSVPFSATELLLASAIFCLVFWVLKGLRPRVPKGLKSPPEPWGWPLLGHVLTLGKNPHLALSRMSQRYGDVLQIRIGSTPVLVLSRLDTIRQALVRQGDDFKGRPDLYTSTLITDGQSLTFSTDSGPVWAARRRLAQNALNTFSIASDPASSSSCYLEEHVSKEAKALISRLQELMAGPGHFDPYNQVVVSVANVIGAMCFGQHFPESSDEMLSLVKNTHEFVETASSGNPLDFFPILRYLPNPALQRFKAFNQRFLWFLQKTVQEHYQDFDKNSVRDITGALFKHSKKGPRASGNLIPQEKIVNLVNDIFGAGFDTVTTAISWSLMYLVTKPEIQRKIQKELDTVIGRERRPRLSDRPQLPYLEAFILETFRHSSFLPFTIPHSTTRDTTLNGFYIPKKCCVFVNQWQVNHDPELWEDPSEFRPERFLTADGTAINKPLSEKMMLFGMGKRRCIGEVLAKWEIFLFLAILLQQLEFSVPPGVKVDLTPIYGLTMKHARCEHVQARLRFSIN

| SMILES | IC50 [1] [nM] | Tumor volume ([2]; Day 0, 5 mg/kg once a day) [mm^3] | Tumor volume ([2]; Day 4, 5 mg/kg once a day) [mm^3] | Tumor volume ([2]; Day 7, 5 mg/kg once a day) [mm^3] | Tumor volume ([2]; Day 11, 5 mg/kg once a day) [mm^3] | Tumor volume ([2]; Day 14, 5 mg/kg once a day) [mm^3] | Tumor volume ([2]; Day 18, 5 mg/kg once a day) [mm^3] | T/C (%) (Day 21) ([2]; Day 21, 5 mg/kg once a day) | TGI (%) (Day 21) ([2]; Day 21, 5 mg/kg once a day) | Tumor volume ([2]; Day 21, 5 mg/kg once a day) [mm^3] | IC50 [3] [nM] | IC50 ([1]; human, 10 min) [nM] | IC50 ([3]; Homo sapiens, MCF7, 144 h) [nM] |
| --- | --- | --- | --- | --- | --- | --- | --- | --- | --- | --- | --- | --- | --- |
| FCCCN1CC[C@H](Nc2cnc(C3=C(CC(F)(F)F)CCCc4c3ccc3[nH]nc(F)c43)cn2)C1 [Compound 11A] | > 50000 | 160 | 184 | 195 | 200 | 176 | 126 | 12.8 | 107 | 112 | 0.17 |  |  |
| FCCCN1CC(Nc2ccc(C3=C(CC(F)(F)F)CCCc4c3ccc3[nH]nc(F)c43)nc2)C1 [Compound 2] |  | 161 | 169 | 182 | 186 | 163 | 133 | 12.3 | 106 | 118 |  | > 50000 | 0.42 |
